Laboratory results published in the NIST ThermoML archive (doi:10.1016/j.jct.2008.04.016).
Numbers after ± are expanded uncertainties.

Legend:
[1] = for viscosity / mass density: 101.33 kPa, Liquid
[2] = refractive index (Na D-line) (dimensionless); details: 101.33 kPa, Liquid

Row | Compound | viscosity ([1]; 288.2 K) | surface tension liquid-gas ([1]; 298.15 K) | mass density ([1]; 298.15 K) | viscosity ([1]; 298.2 K) | surface tension liquid-gas ([1]; 308.15 K) | mass density ([1]; 308.15 K) | viscosity ([1]; 308.2 K) | surface tension liquid-gas ([1]; 318.15 K) | mass density ([1]; 318.15 K) | viscosity ([1]; 318.2 K) | surface tension liquid-gas ([1]; 328.15 K) | mass density ([1]; 328.15 K) | viscosity ([1]; 328.2 K) | surface tension liquid-gas ([1]; 338.15 K) | mass density ([1]; 338.15 K) | mass density ([1]; 348.15 K) | mass density ([1]; 358.15 K) | refractive index ([2]; 302.95 K) | refractive index ([2]; 307.75 K) | refractive index ([2]; 313.15 K) | other results
1 | CCCCCC[n+]1ccn(C)c1.O=S(=O)([N-]S(=O)(=O)C(F)(F)F)C(F)(F)F | 97 ± 24 mPa·s | 32.5 ± 1.4 mN/m | 1372.13 ± 2.5 kg/m3 | 68 ± 24 mPa·s | 31.6 ± 1.4 mN/m | 1363.17 ± 2.5 kg/m3 | 46 mPa·s | 30.5 ± 1.4 mN/m | 1354.23 ± 2.4 kg/m3 | 32 mPa·s | 29.7 ± 1.4 mN/m | 1344.94 ± 2.4 kg/m3 | 24 mPa·s | 28.6 ± 1.3 mN/m | 1335.86 ± 2.3 kg/m3 | 1326.91 ± 2.3 kg/m3 | 1318.16 ± 2.2 kg/m3 | 1.42958 ± 0.0013 | 1.42844 ± 0.0013 | 1.42737 ± 0.0013 | refractive index ([2]; 318.05 K): 1.42649 ± 0.0013; refractive index ([2]; 322.95 K): 1.42578 ± 0.0013; refractive index ([2]; 328.05 K): 1.42484 ± 0.0013; refractive index ([2]; 332.95 K): 1.42376 ± 0.0013
2 | CCCCCCn1cc[n+](C)c1.F[B-](F)(F)F [1-hexyl-3-methylimidazolium tetrafluoroborate] | 141 ± 25 mPa·s | 36.8 ± 1.5 mN/m | 1145.32 ± 1.3 kg/m3 | 102 ± 24 mPa·s | 35.6 ± 1.5 mN/m | 1138.51 ± 1.3 kg/m3 | 69 ± 24 mPa·s | 34.2 ± 1.5 mN/m | 1131.67 ± 1.3 kg/m3 | 43 mPa·s | 33 ± 1.4 mN/m | 1124.89 ± 1.2 kg/m3 | 30 mPa·s | 32.7 ± 1.4 mN/m | 1118.16 ± 1.2 kg/m3 | 1111.47 ± 1.1 kg/m3 | 1104.84 ± 1.1 kg/m3 | 1.42672 ± 0.0013 | 1.42613 ± 0.0013 | 1.42539 ± 0.0013 | viscosity ([1]; 338.2 K): 21 mPa·s; refractive index ([2]; 318.05 K): 1.42443 ± 0.0013; refractive index ([2]; 322.95 K): 1.42346 ± 0.0013; refractive index ([2]; 328.05 K): 1.42232 ± 0.0013; refractive index ([2]; 332.95 K): 1.42146 ± 0.0013
3 | CCCCCCn1cc[n+](C)c1.F[P-](F)(F)(F)(F)F [1-hexyl-3-methylimidazolium hexafluorophosphate] | 1018 ± 210 mPa·s | 42.1 ± 2 mN/m | 1293.41 ± 2.1 kg/m3 | 607 ± 100 mPa·s | 40.7 ± 2 mN/m | 1285.78 ± 2.1 kg/m3 | 345 ± 48 mPa·s | 39.4 ± 1.9 mN/m | 1277.92 ± 2 kg/m3 | 215 ± 31 mPa·s | 38 ± 1.9 mN/m | 1269.88 ± 2 kg/m3 | 152 ± 26 mPa·s | 36.6 ± 1.8 mN/m | 1262.13 ± 1.9 kg/m3 | 1254.36 ± 1.9 kg/m3 | 1246.81 ± 1.9 kg/m3 | 1.41694 ± 0.0013 | 1.41631 ± 0.0013 | 1.41531 ± 0.0013 | viscosity ([1]; 338.2 K): 113 ± 24 mPa·s; viscosity ([1]; 348.2 K): 87 ± 24 mPa·s; refractive index ([2]; 318.05 K): 1.41479 ± 0.0013; refractive index ([2]; 322.95 K): 1.41362 ± 0.0013; refractive index ([2]; 328.05 K): 1.41307 ± 0.0013; refractive index ([2]; 332.95 K): 1.41231 ± 0.0013
